Reference: US20040198743A1 (Schering Corporation, priority 2003, published 2004)
Several values for one entry are separate records, joined by “and”; a condition that tells them apart may be missing. Equal entries are not always repeated.

What was measured:
Histamine Receptor H3 = target: T1, Histamine Receptor H3 (Homo sapiens, UniProt Q9Y5N1); assay: Membrane binding assay, [3H]-N'-methylhistamine for H3 binding
T1 construct: expressed in transfected cells; host or cells: HEK293
Procedure: (§1) Materials. Rat and guinea-pig brains were obtained frozen from Rockland Immunochemicals (Gilbertsville, Pa.). Cell lines expressing recombinant human receptors were generated by using standard transfection techniques. The following radioligands were obtained from Dupont NEN (Boston, Mass.): [^3H]-pyrilamine, 23 Ci/mmol for H 1 binding and [^3H]-N′-methylhistamine, 82 Ci/mmol for H3 binding.
(§2) Methods. Recombinant cell lines (i.e., human H1—CHO cells and human H3-HEK293) were cultured in Dulbecco's modified Eagle's medium/10% fetal bovine serum supplemented with 2 mM glutamine, penicillin (100 U/ml), and streptomycin (100 μg/ml) in a humidified 5% CO2 atmosphere at 37° C. Selection was maintained with 0.5 mg geneticin/ml. Cells were harvested for membrane preparation by aspirating media, replacing it with Hanks' balanced salt solution/5 mM EDTA, and incubating flasks for 10 minutes at 37° C. Cells were pelleted by centrifugation at 1000×g for ten minutes at 4° C.
(§3) Membrane preparation. Membranes were prepared by disrupting cells or tissue in at least ten volumes of ice-cold 50 mM Tris-HCl, pH 7.5 at 25° C., with a Polytron. Homogenates were centrifuged ten minutes at 1000×g and the supernatants were then centrifuged for ten minutes at 50,000×g. Pellets from this centrifugation step were resuspended with a Polytron, a sample was taken for protein determination (BCA; Pierce; Rockford, Ill.), and the resuspension was again centrifuged at 50,000×g. Brain membranes were stored as pellets, cell membranes as suspensions of 1 mg protein/ml Tris buffer at −20° C.
(§4) Binding assays. […] Nonspecific binding was determined in the presence of 10^−6 M chlorpheniramine for H1 binding or 10^−6 M clobenpropit for H3 binding. Assay mixtures were incubated for 30 minutes at 30° C. in polypropylene, 96-well, deep-well plates then filtered through 0.3% polyethylenimine-soaked GF/B filters. These were washed three times with 1.2 ml of Tris buffer, dried in a microwave oven, impregnated with Meltilex wax scintillant and counted at 40% efficiency in a Betaplate scintillation counter (Wallac). IC50 values were determined by interpolation or by nonlinear, least-squares, curve-fitting with the Prism program (GraphPad Software). Ki values were determined in the manner of Cheng and prusoff (Cheng, et al., (1973) Biochem. Pharm. 22:3099-3108).

Histamine Receptor H1 = target: T2, Histamine Receptor H1 (Homo sapiens, UniProt P35367); assay: Membrane binding assay, [3H]-pyrilamine for H1 binding
T2 construct: expressed in transfected cells; host or cells: CHO
Procedure: as §1, §2, §3, §4

[1] = system: cutaneous microvascular permeability produced by compound 48/80; assay: Cutaneous microvascular permeability (Evans blue extravasation) elicited by intradermal compound 48/80; type: in vivo, guinea pig; settings: for effect on baseline Evans blue leakage (dye leakage due to i.d. saline administration): CTM 1.0 mg/kg, THIO 1.0 mg/kg, CLOB 0.3 mg/kg, i.v.; for effect of H3 antagonist alone on cutaneous permeability elicited by compound 48/80: THIO 1.0 mg/kg i.v., CLOB 0.3 mg/kg i.v., given alone; for % Inhibition of Compound 48/80 Skin Responses: treatment i.v. 10 minutes before, each drug 1 mg/kg in Table 3, mean ± SEM

T1 sequence (Q9Y5N1 whole entry): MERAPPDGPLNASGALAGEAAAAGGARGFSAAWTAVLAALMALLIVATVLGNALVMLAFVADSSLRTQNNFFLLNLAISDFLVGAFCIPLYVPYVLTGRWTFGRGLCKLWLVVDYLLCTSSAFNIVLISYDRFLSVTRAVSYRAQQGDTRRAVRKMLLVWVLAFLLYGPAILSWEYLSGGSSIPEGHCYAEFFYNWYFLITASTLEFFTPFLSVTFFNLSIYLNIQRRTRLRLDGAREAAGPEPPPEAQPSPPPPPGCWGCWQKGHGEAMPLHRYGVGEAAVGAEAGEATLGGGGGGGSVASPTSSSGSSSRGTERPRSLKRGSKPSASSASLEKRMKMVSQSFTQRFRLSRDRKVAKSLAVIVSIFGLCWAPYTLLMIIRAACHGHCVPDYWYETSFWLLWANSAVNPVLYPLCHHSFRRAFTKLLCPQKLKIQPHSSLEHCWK
T2 sequence (P35367 whole entry): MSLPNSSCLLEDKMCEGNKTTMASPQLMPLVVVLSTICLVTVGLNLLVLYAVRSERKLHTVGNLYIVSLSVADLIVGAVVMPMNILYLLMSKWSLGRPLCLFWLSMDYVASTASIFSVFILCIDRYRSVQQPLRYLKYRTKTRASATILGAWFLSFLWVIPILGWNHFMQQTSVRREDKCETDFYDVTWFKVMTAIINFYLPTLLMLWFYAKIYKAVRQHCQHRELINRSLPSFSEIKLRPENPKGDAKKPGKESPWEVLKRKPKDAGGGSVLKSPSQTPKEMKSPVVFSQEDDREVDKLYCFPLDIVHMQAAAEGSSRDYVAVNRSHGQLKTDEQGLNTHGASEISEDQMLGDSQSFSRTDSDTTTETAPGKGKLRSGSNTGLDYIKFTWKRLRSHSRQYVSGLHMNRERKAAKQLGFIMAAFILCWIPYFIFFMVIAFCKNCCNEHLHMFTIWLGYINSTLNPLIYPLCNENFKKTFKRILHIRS

| Ki (Histamine Receptor H3) | Ki (Histamine Receptor H1) | SMILES | further results |
| --- | --- | --- | --- |
| 8 nM | 5 nM | Clc1ccc(C(=C2CCN(CCCCCc3c[nH]cn3)CC2)c2ccccn2)cc1 [Formula 29] |  |
| 3 nM |  | CC(C)(C)CCC#C[C@@H]1C[C@H]1c1c[nH]cn1 [Formula 19] |  |
|  |  | S=C(NC1CCCCC1)N1CCC(c2cnc[nH]2)CC1 [Thioperamide, thioperamide] | effect on baseline Evans blue leakage (dye leakage due to i.d. saline administration) [1]: Neither CTM (1.0 mg/kg, i.v.), THIO (1.0 mg/kg, i.v.) nor CLOB (0.3 mg/kg, i.v.) had any effect; effect of H3 antagonist alone on cutaneous permeability elicited by compound 48/80 ([1]; listed as THIO): no observable effect; effect of H3 antagonist alone on cutaneous permeability elicited by compound 48/80 ([1]; listed as thioperamide): does not alter |
| 4 nM |  | CN1CCC(N(C)Cc2ccc(OCCCN3CCC(Cc4c[nH]cn4)CC3)cc2)CC1 [Formula 25] |  |
| 6 nM | 660 nM | O=S(=O)(c1ccc(Cl)cc1)N1CCC(CCc2c[nH]cn2)C1 (stereo not shown) [Formula 21] |  |
| 0.7 nM |  | O=C(CCN1CCC(Cc2c[nH]cn2)CC1)NCCc1ccc(Cl)cc1 [Formula 23] |  |
| 3 nM | 2 nM | Clc1ccc(C(=C2CCN(CCCCc3c[nH]cn3)CC2)c2ccccn2)cc1 [Formula 26] |  |
| 17 nM |  | CC(C)(C)c1ccc(S(=O)(=O)NCCCCc2c[nH]cn2)cc1 [Formula 30] |  |
| 55 nM |  | O=C(c1cnc2ccccc2c1)N1CCC(Cc2c[nH]cn2)CC1 [Formula 17] |  |
| 470 nM |  | C/C(=C\C(=O)Nc1ccc(Cl)cc1)c1ccc(Cc2c[nH]cn2)cc1 [Formula 31] |  |
| 7 nM |  | O=C(/C=C/c1ccc(Cc2c[nH]cn2)cc1)NCCc1ccc(Cl)cc1 [Formula 33] |  |
|  |  | CN(C)CCC(c1ccc(Cl)cc1)c1ccccn1 (stereo not shown) [CTM, chlorpheniramine] | effect on baseline Evans blue leakage (dye leakage due to i.d. saline administration) [1]: Neither CTM (1.0 mg/kg, i.v.), THIO (1.0 mg/kg, i.v.) nor CLOB (0.3 mg/kg, i.v.) had any effect; % Inhibition of Compound 48/80 Skin Responses ([1]; cpd 48/80 0.0003% i.d.): 17%±4% and 17.3 ± 3.6%; % Inhibition of Compound 48/80 Skin Responses ([1]; cpd 48/80 0.001% i.d.): 31%±4% and 31.5 ± 3.7 %; % Inhibition of Compound 48/80 Skin Responses ([1]; cpd 48/80 0.003% i.d.): 32%±4% and 31.8 ± 3.8 %; % Inhibition of Compound 48/80 Skin Responses ([1]; cpd 48/80 0.01% i.d.): 37%±4% and 36.7 ± 3.8 % |
| 10 nM | 310 nM | Clc1ccc(C(CCNCCCCc2c[nH]cn2)c2ccccn2)cc1 (stereo not shown) [Formula 28] |  |
| 15 nM |  | O=C(NCc1ccc(Cc2c[nH]cn2)cc1)Nc1cc(Cl)cc(Cl)c1 [Formula 24] |  |
|  |  | NC(=NCc1ccc(Cl)cc1)SCCCc1cnc[nH]1 [Clobenpropit, clobenpropit] | effect on baseline Evans blue leakage (dye leakage due to i.d. saline administration) [1]: Neither CTM (1.0 mg/kg, i.v.), THIO (1.0 mg/kg, i.v.) nor CLOB (0.3 mg/kg, i.v.) had any effect; effect of H3 antagonist alone on cutaneous permeability elicited by compound 48/80 ([1]; listed as CLOB): no observable effect; effect of H3 antagonist alone on cutaneous permeability elicited by compound 48/80 ([1]; listed as clobenpropit): does not alter |
| 0.8 nM | 330 nM | O=C(CCN1CCC(Cc2c[nH]cn2)CC1)Nc1cccc(Cl)c1 [Formula 20] |  |
| 19 nM |  | c1ccc2c(c1)C1CC(CNCCCCc3c[nH]cn3)C2c2ccccc21 (stereo not shown) [Formula 27] |  |
| 19 nM |  | O=C(NCCCCc1c[nH]cn1)C1(c2ccc(Cl)cc2)CCC1 [Formula 32] |  |
| 3 nM | 29 nM | c1nc(CC2CCN(CCCOc3ccc(CN4CCCCC4)cc3)CC2)c[nH]1 [Formula 22] |  |

| SMILES | Ki (Histamine Receptor H3) | Ki (Histamine Receptor H1) | further results |
| --- | --- | --- | --- |
| O=C(c1ccccn1)N1CCC(Cc2c[nH]cn2)CC1 [Formula 18] | 2 nM |  |  |
